Test results: patent US20240124418A1 (BioTheryX, Inc., priority 2020, published 2024)

Tested on: TNF-α
Test: Cell-based TNF-α inhibition assay (LPS-induced PBMCs, Meso Scale)
Details: PBMC, PBMCs pretreated 1 h, LPS 100 ng/mL 18-24 h, percentage of stimulated DMSO control; for inhibition at 0.1 µM: compound concentration 0.1 μM; for inhibition at 1 µM: compound concentration 1 μM
Protocol: Example B1. Cell-Based TNF-α Inhibition Assay
Frozen primary blood mononuclear cells (PBMCs) were quick thawed, washed once with RPMI 1640 media supplemented with 10% fetal bovine serum, 1% penicillin, and 1% streptomycin, and plated in a 96 well plate at 200,000 cells per well. The cells were pretreated with DMSO only as a control or a compound for 1 h, and then induced with LPS (lipopolysaccharide) (100 ng/mL) for 18-24 h. The supernatant was analyzed for TNF-α using the Meso Scale assay. Compound activity was determined as a percentage of the stimulated DMSO control. The results are summarized in Table 1, where A represents a percent inhibition value ≥60%; B represents a percent inhibition value <60% and ≥40%; C represents a percent inhibition value <40% and ≥20%; and D represents a single percent inhibition value <20%.

SMILES | inhibition at 0.1 µM [%] | inhibition at 1 µM [%]
CCOc1cc([C@@H](CS(C)(=O)=O)N2C(=O)c3cccc(NC(=O)CCCCCN4CCN(CC(=O)Nc5ccc6c(C7CCC(=O)NC7=O)nn(C)c6c5)CC4)c3C2=O)ccc1OC (stereo partly drawn) [Compound A78, 6-[4-({[3-(2,6-Dioxopiperidin-3-yl)-1-methyl-1H-indazol-6-yl]carbamoyl}-methyl)piperazin-1-yl]-N-{2-[(1S)-1-(3-ethoxy-4-methoxyphenyl)-2-methanesulfonylethyl]-1,3-dioxo-2,3-dihydro-1H-isoindol-4-yl}hexanamide] | ≥ 60 | ≥ 60
CCOc1cc([C@@H](CS(C)(=O)=O)N2C(=O)c3cccc(NC(=O)CCCCCCCCCN4CCN(CC(=O)Nc5ccc6c(C7CCC(=O)NC7=O)nn(C)c6c5)CC4)c3C2=O)ccc1OC (stereo partly drawn) [Compound A79, 10-[4-({[3-(2,6-Dioxopiperidin-3-yl)-1-methyl-1H-indazol-6-yl]carbamoyl}-methyl)piperazin-1-yl]-N-{2-[(1S)-1-(3-ethoxy-4-methoxyphenyl)-2-methanesulfonylethyl]-1,3-dioxo-2,3-dihydro-1H-isoindol-4-yl}decanamide] | ≥ 60 | ≥ 60
CCOc1cc([C@@H](CS(C)(=O)=O)N2C(=O)c3cccc(NC(=O)CCCCCN4CCN(CC(=O)Nc5ccc(C6CCC(=O)NC6=O)cc5)CC4)c3C2=O)ccc1OC (stereo partly drawn) [Compound A83, 6-[4-({[4-(2,6-Dioxopiperidin-3-yl)phenyl]carbamoyl}methyl)piperazin-1-yl]-N-{2-[(1S)-1-(3-ethoxy-4-methoxyphenyl)-2-methanesulfonylethyl]-1,3-dioxo-2,3-dihydro-1H-isoindol-4-yl}hexanamide] | ≥ 60 | ≥ 60
CCOc1cc([C@@H](CS(C)(=O)=O)N2C(=O)c3cccc(NC(=O)CCCCCCCN4CCN(CC(=O)Nc5ccc(C6CCC(=O)NC6=O)cc5)CC4)c3C2=O)ccc1OC (stereo partly drawn) [Compound A84, 8-[4-({[4-(2,6-Dioxopiperidin-3-yl)phenyl]carbamoyl}methyl)piperazin-1-yl]-N-{2-[(1S)-1-(3-ethoxy-4-methoxyphenyl)-2-methanesulfonylethyl]-1,3-dioxo-2,3-dihydro-1H-isoindol-4-yl}octanamide] | ≥ 60 | ≥ 60
CCOc1cc([C@@H](CS(C)(=O)=O)N2C(=O)c3cccc(NC(=O)CCCCCCCN4CCN(CC(=O)Nc5cccc(C6CCC(=O)NC6=O)c5)CC4)c3C2=O)ccc1OC (stereo partly drawn) [Compound A85, 8-[4-({[3-(2,6-Dioxopiperidin-3-yl)phenyl]carbamoyl}methyl)piperazin-1-yl]-N-{2-[(1S)-1-(3-ethoxy-4-methoxyphenyl)-2-methanesulfonylethyl]-1,3-dioxo-2,3-dihydro-1H-isoindol-4-yl}octanamide] | ≥ 60 | ≥ 60
CCOc1cc([C@@H](CS(C)(=O)=O)N2C(=O)c3cccc(NC(=O)CCCCCCCCCN4CCN(CC(=O)Nc5ccc(C6CCC(=O)NC6=O)cc5)CC4)c3C2=O)ccc1OC (stereo partly drawn) [Compound A86, 10-[4-({[4-(2,6-Dioxopiperidin-3-yl)phenyl]carbamoyl}methyl)piperazin-1-yl]-N-{2-[(1S)-1-(3-ethoxy-4-methoxyphenyl)-2-methanesulfonylethyl]-1,3-dioxo-2,3-dihydro-1H-isoindol-4-yl}decanamide] | ≥ 60 | ≥ 60
CCOc1cc([C@@H](CS(C)(=O)=O)N2C(=O)c3cccc(NC(=O)CCCCCN4CCN(CC(=O)Nc5cccc(C6CCC(=O)NC6=O)c5)CC4)c3C2=O)ccc1OC (stereo partly drawn) [Compound A87, 6-[4-({[3-(2,6-Dioxopiperidin-3-yl)phenyl]carbamoyl}methyl)piperazin-1-yl]-N-{2-[(1S)-1-(3-ethoxy-4-methoxyphenyl)-2-methanesulfonylethyl]-1,3-dioxo-2,3-dihydro-1H-isoindol-4-yl}hexanamide] | ≥ 60 | ≥ 60
CCOc1cc([C@@H](CS(C)(=O)=O)N2C(=O)c3cccc(NC(=O)CCCCCCCCCN4CCN(CC(=O)Nc5cccc(C6CCC(=O)NC6=O)c5)CC4)c3C2=O)ccc1OC (stereo partly drawn) [Compound A88, 10-[4-({[3-(2,6-Dioxopiperidin-3-yl)phenyl]carbamoyl}methyl)piperazin-1-yl]-N-{2-[(1S)-1-(3-ethoxy-4-methoxyphenyl)-2-methanesulfonylethyl]-1,3-dioxo-2,3-dihydro-1H-isoindol-4-yl}decanamide] | ≥ 60 | ≥ 60
CCOc1cc([C@@H](CS(C)(=O)=O)N2C(=O)c3cc(CCCCCCCCCCCCNc4cccc(NC5CCC(=O)NC5=O)c4)cc(NC(C)=O)c3C2=O)ccc1OC (stereo partly drawn) [Compound A89, N-{6-[12-({3-[(2,6-Dioxopiperidin-3-yl)amino]phenyl}amino)dodecyl]-2-[(1S)-1-(3-ethoxy-4-methoxyphenyl)-2-methanesulfonylethyl]-1,3-dioxo-2,3-dihydro-1H-isoindol-4-yl}acetamide] | ≥ 60 | ≥ 60
CCOc1cc([C@@H](CS(C)(=O)=O)N2C(=O)c3cc(CCCCCCCCCCCCNc4cccc(NC5CCC(=O)NC5=O)c4)cc(N)c3C2=O)ccc1OC (stereo partly drawn) [Compound A90, 4-Amino-6-[12-({3-[(2,6-dioxopiperidin-3-yl)amino]phenyl}amino)dodecyl]-2-[(1S)-1-(3-ethoxy-4-methoxyphenyl)-2-methanesulfonylethyl]-2,3-dihydro-1H-isoindole-1,3-dione] | ≥ 60 | ≥ 60
O=C1CCC(N2Cc3c(cc(F)cc3C3CCN(CCCCCCCCCOc4cc(C(=O)Nc5c(Cl)cncc5Cl)ccc4OC(F)F)CC3)C2=O)C(=O)N1 (centres unmarked) [Compound B4, N-(3,5-Dichloropyridin-4-yl)-4-(difluoromethoxy)-3-((9-(4-(2-(2,6-dioxo-piperidin-3-yl)-6-fluoro-1-oxoisoindolin-4-yl)piperidin-1-yl)nonyl)oxy)benzamide] | ≥ 60 | –
O=C1CCC(N2Cc3c(cc(F)cc3C3CCN(CCCCCOc4cc(C(=O)Nc5c(Cl)cncc5Cl)ccc4OC(F)F)CC3)C2=O)C(=O)N1 (centres unmarked) [Compound B5, N-(3,5-Dichloropyridin-4-yl)-4-(difluoromethoxy)-3-((5-(4-(2-(2,6-dioxo-piperidin-3-yl)-6-fluoro-1-oxoisoindolin-4-yl)piperidin-1-yl)pentyl)oxy)benzamide] | ≥ 60 | –
O=C1CCC(N2Cc3c(cc(F)cc3C3CCN(CCCCCCCCCOc4ccc(C(=O)Nc5c(Cl)cncc5Cl)cc4OCC4CC4)CC3)C2=O)C(=O)N1 (centres unmarked) [Compound B12, 3-(Cyclopropylmethoxy)-N-(3,5-dichloropyridin-4-yl)-4-((9-(4-(2-(2,6-dioxopiperidin-3-yl)-6-fluoro-1-oxoisoindolin-4-yl)piperidin-1-yl)nonyl)oxy)benzamide] | 20 to 40 | –
CC(=O)NC(=O)C(C)N1Cc2c(cc(F)cc2C2CCN(CCCCCCCCCOc3cc(C(=O)Nc4c(Cl)cncc4Cl)ccc3OC(F)F)CC2)C1=O (centres unmarked) [Compound B13, 3-((9-(4-(2-(1-Acetamido-1-oxopropan-2-yl)-6-fluoro-1-oxoisoindolin-4-yl)piperidin-1-yl)nonyl)oxy)-N-(3,5-dichloropyridin-4-yl)-4-(difluoromethoxy)benzamide] | ≥ 60 | ≥ 60
O=C1CCC(N2Cc3c(csc3COc3ccc(CNCCCCCCCOc4cc(C(=O)Nc5c(Cl)cncc5Cl)ccc4OC(F)F)cc3)C2=O)C(=O)N1 (centres unmarked) [Compound B18, N-(3,5-Dichloropyridin-4-yl)-4-(difluoromethoxy)-3-((7-((4-((5-(2,6-dioxo-piperidin-3-yl)-4-oxo-5,6-dihydro-4H-thieno[3,4-c]pyrrol-1-yl)methoxy)benzyl)amino)heptyl)-oxy)benzamide] | ≥ 60 | ≥ 60
Cc1ncsc1-c1ccc(CNC(=O)[C@@H]2C[C@@H](O)CN2C(=O)[C@@H](NC(=O)CCCCCCCCOc2cc(C(=O)Nc3c(Cl)cncc3Cl)ccc2OCC2CC2)C(C)(C)C)cc1 [Compound B22, (2S,4R)-1-((S)-2-(9-(2-(Cyclopropylmethoxy)-5-((3,5-dichloropyridin-4-yl)carbamoyl)phenoxy)nonanamido)-3,3-dimethylbutanoyl)-4-hydroxy-N-(4-(4-methylthiazol-5-yl)benzyl)pyrrolidine-2-carboxamide] | < 20 | 20 to 40
